Assays:
[1] = Hygroscopic stability for 24 hours (P-XRD); assay type: physicochemical; conditions: kept in the desiccator for 24 hours; 3.0 gms sample
Procedure: Hygroscopic Stability for 24 Hours:
Samples of crystalline form-S of Cabozantinib (S)-malate (3.0 gms) is kept in the desiccator for 24 hours.
(§1) PXRD analysis of compounds produced by the present invention were carried out using BRUKER IDS ADVANCE/AXS X-Ray diffractometer using Cu Kα radiation of wavelength 1.5406 A° and continuous scan speed of 0.03°/min.

[2] = Thermal stability at 60° C. (P-XRD); assay type: physicochemical; conditions: heating in a vacuum dryer at 60° C. for 24 hours; 3.0 gms sample
Procedure: Thermal Stability at 60° C.:
Samples of crystalline form-S of Cabozantinib (S)-malate (3.0 gms) is subjected to heating in a vacuum dryer at 60° C. for 24 hours.
as §1

COc1cc2nccc(Oc3ccc(NC(=O)C4(C(=O)Nc5ccc(F)cc5)CC4)cc3)c2cc1OC.O=C(O)C[C@H](O)C(=O)O [N-(4-(6,7-dimethoxyquinolin-4-yloxy)phenyl)-N′-(4-fluorophenyl)cyclopropane-1,1-dicarboxamide (S)-malate]
Hygroscopic stability for 24 hours by P-XRD pattern [1]: stable | Thermal stability at 60° C. by P-XRD pattern [2]: stable

Reference: US11261160B2, “Process for the preparation of N-(4-(6,7-dimethoxyquinolin-4-yloxy)phenyl)-N′-(4-fluorophenyl)cyclopropane-1, 1-dicarboxamide, (2S)-hydroxybutanedioate and its polymorphs thereof” (MSN LABORATORIES PRIVATE LIMITED, R&D CENTER, priority 2016, dated 2022)
